“And” between values parts separate entries of the source, which are not always exact repeats. Equal entries are not always repeated.
Columns and labels:
[1] = tested on: ABUTH; assay: Pre-emergence herbicidal action against ABUTH; type: in vivo, Abutilon theophrasti
How it was run: (§1)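 Visual rating at 3 weeks vs untreated pots; 0–100% scale, 100% = plants died. Treatment: aqueous WP/EC spray onto covering soil, 600–800 l/ha, 0.2% wetter, seeds in sandy loam.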

[2] = tested on: ALOMY; assay: Pre-emergence herbicidal action against ALOMY; type: in vivo, Alopecurus myosuroides; conditions: 80 g/ha, pre-emergence, scored visually after 3 weeks vs untreated controls (100% = plants have died, 0% = like control plants)
How it was run: as §1

[3] = tested on: AMARE; assay: Pre-emergence herbicidal action against AMARE; type: in vivo, Amaranthus retroflexus
How it was run: as §1

[4] = tested on: AVEFA; assay: Pre-emergence herbicidal action against AVEFA; type: in vivo, Avena fatua; conditions: 80 g/ha, pre-emergence
How it was run: as §1

[5] = tested on: ECHCG; assay: Pre-emergence herbicidal action against ECHCG; type: in vivo, Echinochloa crus-galli; conditions: 80 g/ha
How it was run: as §1

[6] = tested on: LOLRI; assay: Pre-emergence herbicidal action against LOLRI; type: in vivo, Lolium rigidum; conditions: 80 g/ha
How it was run: as §1

[7] = tested on: MATIN; assay: Pre-emergence herbicidal action against MATIN; type: in vivo, Matricaria inodora
How it was run: as §1

[8] = tested on: PHBPU; assay: Pre-emergence herbicidal action against PHBPU; type: in vivo, Pharbitis purpurea; conditions: dosage 80 g/ha
How it was run: as §1

[9] = tested on: POLCO; assay: Pre-emergence herbicidal action against POLCO; type: in vivo, Polygonum convolvulus; conditions: dosage 80 g/ha
How it was run: as §1

[10] = tested on: SETVI; assay: Pre-emergence herbicidal action against SETVI; type: in vivo, Setaria viridis; conditions: dosage 80 g/ha
How it was run: as §1

[11] = tested on: VERPE; assay: Pre-emergence herbicidal action against VERPE; type: in vivo, Veronica persica; conditions: dosage 80 g/ha
How it was run: as §1

[12] = tested on: VIOTR; assay: Pre-emergence herbicidal action against VIOTR; type: in vivo, Viola tricolor
How it was run: as §1

[13] = tested on: DIGSA; assay: Pre-emergence herbicidal action against DIGSA; type: in vivo, Digitaria sanguinalis
How it was run: as §1

[14] = tested on: ABUTH; assay: Post-emergence herbicidal action against ABUTH; type: in vivo, Abutilon theophrasti; conditions: visual assessment about 3 weeks after treatment vs untreated controls
How it was run: (§2)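 Greenhouse pot plants in sandy loam were sprayed at the one-leaf stage, 2 to 3 weeks after sowing, with WP or EC formulations as aqueous suspension or emulsion (600 to 800 l/ha water, 0.2% wetting agent). About 3 weeks later, damage was scored visually against untreated controls as % action (100% = dead, 0% = like control).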

[15] = tested on: ALOMY; assay: Post-emergence herbicidal action against ALOMY; type: in vivo, Alopecurus myosuroides; conditions: visual assessment about 3 weeks after treatment vs untreated controls
How it was run: as §2

[16] = tested on: AMARE; assay: Post-emergence herbicidal action against AMARE; type: in vivo, Amaranthus retroflexus; conditions: 20 g/ha, visual assessment about 3 weeks after treatment, 100% = plants have died, 0% = like control plants
How it was run: as §2

[17] = tested on: AVEFA; assay: Post-emergence herbicidal action against AVEFA; type: in vivo, Avena fatua; conditions: 20 g/ha, visual assessment about 3 weeks after treatment, 100% = plants have died, 0% = like control plants
How it was run: as §2

[18] = tested on: ECHCG; assay: Post-emergence herbicidal action against ECHCG; type: in vivo, Echinochloa crus-galli
How it was run: as §2

[19] = tested on: MATIN; assay: Post-emergence herbicidal action against MATIN; type: in vivo, Matricaria inodora; conditions: dosage 20 g/ha
How it was run: as §2

[20] = tested on: PHBPU; assay: Post-emergence herbicidal action against PHBPU; type: in vivo, Pharbitis purpurea
How it was run: as §2

[21] = tested on: SETVI; assay: Post-emergence herbicidal action against SETVI; type: in vivo, Setaria viridis; conditions: dosage 20 g/ha
How it was run: as §2

[22] = tested on: VERPE; assay: Post-emergence herbicidal action against VERPE; type: in vivo, Veronica persica; conditions: 20 g/ha
How it was run: as §2

[23] = tested on: VIOTR; assay: Post-emergence herbicidal action against VIOTR; type: in vivo, Viola tricolor
How it was run: as §2

[24] = tested on: DIGSA; assay: Post-emergence herbicidal action against DIGSA; type: in vivo, Digitaria sanguinalis
How it was run: as §2

[25] = 80 g/ha, scored visually after 3 weeks vs untreated controls (100% = plants have died, 0% = like control plants)

CCn1nnnc1NC(=O)c1ccc(C(F)F)c(C(=O)NCC2CC2)c1C [Example 2-47]
Pre-emergence action against ABUTH (herbicidal activity) [1, 25]: 100% | Pre-emergence action against ABUTH (herbicidal activity in percent) ([1]; dosage 20 g/ha, scored visually after 3 weeks vs untreated controls, 100% = plants have died, 0% = like control plants): 100% | Pre-emergence action against ALOMY (herbicidal activity) [2]: 100% | Pre-emergence action against AMARE in % ([3]; 20 g/ha, scored visually after 3 weeks vs untreated controls, 100% = plants have died, 0% = like control plants): 100% | Pre-emergence action against AMARE in % [3, 25]: 100% | Pre-emergence action against AVEFA in % [4]: 80% | Pre-emergence action against ECHCG in % [5]: 100% | Pre-emergence action against LOLRI in % [6]: 80% | Pre-emergence action against MATIN in % ([7]; dosage 20 g/ha): 100% | Pre-emergence action against MATIN in % ([7]; dosage 80 g/ha): 100% | Pre-emergence action against PHBPU in % [8]: 90% | Pre-emergence action against POLCO in % [9]: 80% | Pre-emergence action against SETVI in % [10]: 100% | Pre-emergence action against VERPE in % [11]: 100% | Pre-emergence action against VIOTR in % ([12]; dosage 20 g/ha): 80% | Pre-emergence action against VIOTR in % ([12]; dosage 80 g/ha): 100% | Pre-emergence action against DIGSA in % ([13]; dosage 20 g/ha): 100% | Pre-emergence action against DIGSA in % ([13]; dosage 80 g/ha): 100% | Post-emergence action against ABUTH in % ([14]; dosage 5 g/ha): 90% and 80% | Post-emergence action against ABUTH in % ([14]; dosage 20 g/ha): 90% | Post-emergence action against ALOMY in % ([15]; dosage 5 g/ha): 80% | Post-emergence action against ALOMY in % ([15]; dosage 20 g/ha): 90% | Post-emergence action at 20 g/ha against AMARE in % [16]: 90% and 100% | Post-emergence action at 20 g/ha against AVEFA in % [17]: 80% | Post-emergence action against ECHCG in % ([18]; dosage 5 g/ha): 80% | Post-emergence action against ECHCG in % ([18]; dosage 20 g/ha): 90% and 80% | Post-emergence action against MATIN in % [19]: 80% | Post-emergence action against PHBPU in % ([20]; dosage 5 g/ha): 80% | Post-emergence action against PHBPU in % ([20]; dosage 20 g/ha): 90% | Post-emergence action against SETVI in % [21]: 90% | Post-emergence action against VERPE in % [22]: 80% | Post-emergence action against VIOTR in % ([23]; 5 g/ha): 80% | Post-emergence action against VIOTR in % ([23]; 20 g/ha): 90% and 80% | Post-emergence action against DIGSA in % ([24]; 5 g/ha): 90% | Post-emergence action against DIGSA ([24]; 20 g/ha): 90%
